The text below walks through data of PMC4237671 (Anesthesiology, 2014).

“Also recorded” adds a separate entry of the source. Where two headings read alike, the source gives them in different places.

Data set [1] in a line: Pharmacokinetics after single bolus followed by 2-h infusion.
A short description of data set [2]: Pharmacokinetics after single IV bolus. As to conditions: for Co: back-extrapolated; for Plasma concentration range during anesthetic recovery: after IV bolus, approximate.
Data set [3] relates to adrenocortical responsiveness to ACTH1-24 stimulation. The data set is described as follows: Adrenocortical recovery after hypnotic infusion. To be noted: for Plasma cortisol concentrations compared to vehicle group over time: after 2-h infusion, ACTH1-24 stimulated; for Shared Hill coefficient of in vivo adrenocortical concentration-response curves: both data sets fit to a single Hill coefficient.

In data set [4] the test system is dogs. The data set is described as follows: Loss of righting reflexes. Type of data set: in vivo, beagle dog.
In data set [5] the test system is dogs. Briefly: Pharmacodynamic modeling: plasma concentration vs anesthesia score. The class given is in vivo, beagle dog. As to conditions: bolus, n = 3 dogs; for γ (slope parameter): sigmoid Emax fit; for EC anesthesia score 3: venous plasma concentration when anesthesia score is 3.
Data set [6] has as its system dogs. The data set is described as follows: Observation of myoclonus during and after hypnotic infusion. As to conditions: for Persistence of myoclonus in the postinfusion period: after 2-h infusions; for Incidence of myoclonus during infusion: for all studies.
Data set [7] relates to dogs. Type of data set: in vivo, beagle dog.
Data set [8] has as its system dogs. The data set is described as follows: Pilot experiments of midazolam dosing in dogs. Type of data set: in vivo, beagle dog. To be noted: 0.1 - 0.2 mg/kg intravenous bolus per dose.
The test system of data set [9] is rats. As to conditions: cited from earlier work.
Data set [10] relates to rats. As to conditions: cited from earlier work. The source holds these as a separate data set.
Data set [11] is described as follows: Stability testing of frozen formulated drug. To be noted: 8 mg/ml in 20% sulfobutylether-β-cyclodextrin pH 7.4, stored frozen at -20°C. Type of data set: physicochemical.
Where [12] appears, read: metabolite, bolus followed by 2-h infusion of parent, n = 4 dogs.
The mark [13] stands for this setting: metabolite after IV bolus of parent, n = 3 dogs.
Where [14] appears, read: CPMM vs etomidate 2-h infusion study, n = 4 dogs per group.
The mark [15] stands for this setting: IV bolus (CPMM 4 mg/kg, etomidate 2 mg/kg), n = 3 dogs.
Where [16] appears, read: parent drug, IV bolus, n = 3 dogs, time zero to infinity.
The mark [17] stands for this setting: CPMM vs propofol 2-h infusion study, n = 4 dogs/group.
Setting [18] is: bolus followed by 2-h infusion, dogs.
[19] abbreviates: parent drug, IV bolus, n = 3 dogs.

In general, Cmax refers to the peak of the concentration-time curve. The AUC is the area under the concentration-time curve, a measure of exposure. Consider `CC(c1ccccc1)n1cncc1C(=O)O` (centres unmarked) [Etomidate Metabolite], for which, in [1] (setting [12]), the Cmax is 1,680 ±253 ng/ml and the t1/2 worked out at 69.3 ± 23.4 min. In data set [2] (after etomidate 2 mg/kg bolus, dogs), the “Plasma concentration in final blood samples 120 min after administration” value was 708 ± 75 ng/mL. In addition, in [2] (setting [13]), the AUC is reported as 236,000 ± 18,400 min·ng ml^−1, the Cmax is given as 2,370 ± 347 ng·ml^−1, the t1/2 is recorded as 61.4 ± 9.13 min and the tmax was determined as 18.3 ± 18.9 min.
`CCOC(=O)c1cncn1[C@H](C)c1ccccc1` [Etomidate, reference compound]: the “Plasma cortisol concentrations compared to vehicle group over time” value in data set [3] (dogs) is given as “remained significantly lower than those in the vehicle group throughout the duration of the study (>300 min)”. The “Shared Hill coefficient of in vivo adrenocortical concentration-response curves” value in [3] is given as -2.0. For the same compound, the “Duration of LoRR” value with dogs [4] (0.5 mg/kg IV bolus, n = 3 dogs) came out at 2.7 ± 0.8 min. Further, the “Duration of LoRR” value in the data set on dogs [4] (1.9 mg/kg IV bolus, n = 3 dogs) was found to be 17 ± 5 min. In the data set on dogs [4] (dogs), the “Relative hypnotic potency CPMM vs etomidate” value is listed as “approximately twice as potent as CPMM”. In addition, in the data set on dogs [4] (dogs, IV bolus), the “Bolus doses that induced LoRR in all dogs” value is recorded as 0.5 to 1.9 mg/kg, the “Slope of duration of LoRR vs logarithm of dose” value is reported as 24 and the “X-intercept of duration of LoRR vs logarithm of dose” value was 0.37 mg/kg. Besides, in the data set with dogs [5], the “γ (slope parameter)” value is listed as 1.7 0.9 – 2.4 and the “EC anesthesia score 3” value is listed as 5,952 4,392 – 8,066 ng/ml. In addition, the “EC anesthesia score 1” value with dogs [5] (venous plasma concentration when anesthesia score is 1) is 1,607 1,026 – 2,517 ng/ml. The compound further showed a Cmax in data set [1] (beagle, dog, in vivo) of 2050 ng/mL. In addition, in the data set with dogs [6] (setting [14]), the “Dogs with myoclonus during infusion” value was 2 dogs. In addition, the “Persistence of myoclonus in the postinfusion period” value in the data set on dogs [6] (dogs) was “up to approximately an hour”. In the data set on dogs [6], the “Incidence of myoclonus during infusion” value is given as 2/4. The Co in data set [2] (setting [15]) is 10,700 ± 1,440 ng/ml. Also, in [2] (IV bolus, dogs), the “Decrease of plasma concentration from initial to final blood sample (2 h)” value is recorded as 1.5 orders of magnitude and the “Plasma concentration at 10 min as percentage of initial blood sample” value came to 25%. In addition, in [2] (dogs), the “Plasma concentration range during anesthetic recovery” value is given as “approximately 1,000 ng/ml”. Also, in data set [2] (beagle, dog, in vivo, 2 mg/kg), the concentration at 30 s amounted to 9080 ng/mL and the concentration at 10 min came to 2230 ng/mL. Also, the AUC in data set [2] (beagle, dog, in vivo, iv, 2 mg/kg, AUC, parent drug, IV bolus, n = 3 dogs, time zero to infinity) is 1930 ng·h/mL. Further, in [2] (setting [16]), the AUC was 139,000 ± 26,300 min-ng ml^−1. Moreover, the “Time after bolus administration of anesthetic recovery” value in the data set with dogs [7] (CPMM 4 mg/kg or etomidate 2 mg/kg bolus, see fig. 3B) is 9.0 to 13.8 min.
As for `Cc1ncc2n1-c1ccc(Cl)cc1C(c1ccccc1F)=NC2` [midazolam], in the data set on dogs [8], the Sedative effect result is recorded as “no discernable sedative effect”. Also, the Effect on myoclonus entry in the data set on dogs [6] (0.1 - 0.2 mg/kg intravenous bolus per dose during 2-h hypnotic infusions, dogs) is given as “effectively reduced the myoclonus”.
For `CC(C)c1cccc(C(C)C)c1O` [propofol], the “Dogs with myoclonus during infusion” value with dogs [6] (setting [17]) is “two dogs had myoclonus”.
On to “cyclopropyl-methoxycarbonyl metomidate [CPMM]”, for which the “Hypnotic recovery time following 2-h continuous infusion” value in the data set on rats [9] is 4.2 min. The “Adrenal response to the second ACTH challenge compared to vehicle control” value in data set [3] (180 min postinfusion, n = 4 dogs/group) is “normal adrenal response”. For the same compound, the “Plasma cortisol concentrations compared to vehicle group over time” value in [3] (dogs) is reported as “not significantly different from controls for all time points longer than 120 min after infusion termination”. Moreover, the “Half-time of adrenocortical recovery (normalized plasma cortisol)” value in data set [3] (after bolus plus 2-h infusion, n = 4 dogs) was 215 min. Moreover, the “Shared Hill coefficient of in vivo adrenocortical concentration-response curves” value in data set [3] was -2.0. The “ACTH-stimulated plasma cortisol concentration, fold higher vs etomidate group” value in data set [3] (equivalent postinfusion time points after 2-h infusion, dogs) is 4- to 27 fold. In addition, in [3] (plasma hypnotic concentration, dogs, Hill fit, estimated), the “In vivo IC50 for suppression of adrenocortical responsiveness to ACTH1-24” value was 0.027 µg/mL. In addition, in the data set with dogs [4] (1 mg/kg IV bolus, n = 3 dogs), the “Duration of LoRR” value turned out to be 1.8 ± 0.6 min. The “Duration of LoRR” value in the data set on dogs [4] (12 mg/kg IV bolus, n = 4 dogs) is recorded as 10.9 ± 0.7 min. In the data set on dogs [4] (dogs), the “Relative hypnotic potency CPMM vs etomidate” value is “half as potent; also recorded: approximately half that of etomidate”. In the data set with dogs [4] (dogs, IV bolus), the “Bolus doses that induced LoRR in all dogs” value is listed as not below 1 mg/kg, the “Slope of duration of LoRR vs logarithm of dose” value was found to be 9.9 and the “X-intercept of duration of LoRR vs logarithm of dose” value is listed as 0.88 mg/kg. In the data set with dogs [4] (dogs, IV bolus 0.25 mg/kg or 0.5 mg/kg), the “LoRR at lower doses” value is listed as “failed to induce LoRR in any dog”. Moreover, the “Time to induction of LoRR” value in the data set with dogs [4] (dogs, IV bolus at doses ≥1 mg/kg) is reported as less than 15 s. In addition, the “ED50 for loss of righting reflexes” value with dogs [4] (dogs, IV bolus, approximate value from Hill fit) was ~ 0.8 mg/kg. For the same compound, in the data set with dogs [5], the “γ (slope parameter)” value is reported as 1.3 0.7 – 1.9 and the “EC anesthesia score 3” value was 2,798 1,840 – 4,256 ng/ml. Also, in data set [1] (setting [18]), the “Decrease of plasma concentration from 30 to 60 min after the infusion ended” value came out at 22% and the “Half-life of decline beyond 30 min after infusion” value is listed as ~ 90 min. In the data set with dogs [6] (setting [14]), the “Dogs with myoclonus during infusion” value is recorded as 4 dogs. Besides, in the data set with dogs [6] (setting [17]), the “Dogs with myoclonus during infusion” value is reported as “all four dogs had myoclonus”. Also, in the data set on dogs [6] (dogs), the “Persistence of myoclonus in the postinfusion period” value is on record as “ceased within several minutes”. Further, the “Incidence of myoclonus during infusion” value in the data set with dogs [6] is on record as 8/8. Also, the “Plasma concentration in initial blood sample” value in [2] (30 s after IV bolus (CPMM 4 mg/kg, etomidate 2 mg/kg), n = 3 dogs) is listed as 4,130 ± 640 ng/ml. Also, in data set [2] (setting [15]), the “Plasma concentration 10 min after administration” value was 330 ± 41 ng/mL and the Co is 5,180 ± 1,120 ng/ml. In [2] (IV bolus, dogs), the “Decrease of plasma concentration from initial to final blood sample (2 h)” value is listed as “decreased by four orders of magnitude” and the “Plasma concentration at 10 min as percentage of initial blood sample” value came to 8%. The “Plasma concentration range during anesthetic recovery” value in [2] (dogs) was “approximately 500 ng/ml”. Further, the “Normalized plasma concentration as percentage of that of etomidate” value in data set [2] (one hour after hypnotic bolus, dogs) amounted to 7%. Further, in data set [2] (setting [19]), the CL was found to be 211 ± 26 mL/min/kg and the Vss is 1,880 ± 569 ml·kg^−1. In data set [2] (parent drug, IV bolus, n = 3 dogs, apparent terminal half-life), the t1/2 was found to be 16.1 ± 2.99 min. In [2] (setting [16]), the AUC is 19,200 ± 2,590 min-ng ml^−1. For the same compound, in data set [2] (single bolus, dogs), the “Clearance relative to etomidate (fold higher)” value is recorded as 14 X, the “Terminal elimination half-life relative to etomidate” value amounted to 27% and the “Vss relative to total body water volume in dogs (600 ml/kg)” value is reported as 3 X. For the same compound, the “Normalized plasma concentration as percentage of that of etomidate” value in data set [2] (ten minutes after hypnotic bolus, dogs) is 33%. Also, in the data set on dogs [7] (bolus followed by 2-h infusion), the “Time to recover from anesthesia score 3 to score 0” value is listed as 8 ± 3 min and the “Time to recover from anesthesia score 3 to score 2” value worked out at 4.4 ± 1.3 min. Further, the “Dependence of hypnotic recovery times on infusion duration” value with dogs [7] (bolus vs bolus plus 2-h infusion) was “independent of infusion duration”. Further, the “Recovery times from anesthesia score 3 to all lower scores compared to etomidate” value with dogs [7] (single bolus CPMM 4 mg/kg vs etomidate 2 mg/kg) was “significantly shorter”. For the same compound, in the data set with dogs [7] (single bolus only (4 mg/kg)), the “Time to recover from anesthesia score 3 to score 0” value came out at 11 ± 3 min, the “Time to recover from anesthesia score 3 to score 1” value amounted to 5.5 ± 0.7 min and the “Time to recover from anesthesia score 3 to score 2” value is 4.3 ± 1.2 min. For the same compound, in the data set on rats [10], the “Hypnotic ED50” value is approximately 0.69 mg/kg and the “Slope of duration of hypnosis vs logarithm of dose” value is listed as 6.9. In addition, the “Stability of formulated drug” value in data set [11] is “no significant degradation over time”.
